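Following 48 hours of exposure in 96-well plates, responses at five concentrations were used to interpolate endpoints linearly. GI50 = concentration required for 50% inhibition of growth. TGI marks complete inhibition of growth.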
Tests used:
Test in all cases: growth of human tumour cells (NCI), 48 h
[1] = test system: UO-31 renal
[2] = test system: HCT-116 colon
[3] = test system: DU-145 prostate
[4] = test system: NCI-H460 lung
[5] = test system: SF-295 CNS
[6] = test system: OVCAR-5 ovarian
[7] = test system: NCI-H226 lung
[8] = test system: RXF 393 renal

Row | Structure (SMILES) | GI50 [1] [µM] | TGI [1] [µM] | GI50 [2] [µM] | TGI [2] [µM] | GI50 [3] [µM] | TGI [3] [µM] | GI50 [4] [µM] | TGI [4] [µM] | GI50 [5] [µM] | TGI [5] [µM] | GI50 [6] [µM] | TGI [6] [µM] | GI50 [7] [µM] | TGI [7] [µM] | TGI [8] [µM] | GI50 [8] [µM]
1 | O=C1c2ccccc2-c2c1c1ccc([N+](=O)[O-])cc1c(=O)n2CCN1CCOCC1 | > 100 | > 100 | > 100 | > 100 | 61 | > 100 | 78.4 | > 100 | 92 | > 100 | > 100 | > 100 | > 100 | > 100 |  | 
2 | CCCCCC/C=C\CCCCCCCCCc1cccc(OC)c1O |  | > 100 |  | > 100 |  | > 100 |  |  |  | > 100 |  | > 100 |  | > 100 | > 100 | 
3 | CCOc1cc(CCNC)c2c(ccc3ccc(OC)c(O)c32)c1OC |  | 29.6 |  | 22.1 |  | 28.5 |  | 32.9 |  | 30.1 |  | 29.5 |  | 46.9 | 31.5 | 
4 | O=C(O)c1ccccc1C(=O)Nc1cc2c(cc1Br)-c1ccccc1C2=O |  | > 100 |  | > 100 |  | > 100 |  | > 100 |  |  |  | > 100 |  |  | > 100 | 
5 | COC(=O)C1OC(SCCN)C(O)C(O)C1O (stereo not given) |  |  |  | > 100 |  | > 100 |  | > 100 |  | > 100 |  | > 100 |  | > 100 | > 100 | 
6 | Cn1c(=S)c2[nH]c(SCc3cccnc3)nc2n(C)c1=O |  | > 100 |  | > 100 |  | > 100 |  | > 100 |  | > 100 |  | > 100 |  | > 100 | > 100 | 
7 | O=C1Nc2cc(-c3ccc(O)cc3)ccc2/C1=C/c1ccc[nH]1 | 0.13 | 2.06 | 0.115 | > 100 | 0.815 | > 36.4 |  |  | 0.266 | > 40.5 | 0.588 | > 25 | 0.673 | > 100 | 2.45 | 0.826
8 | Cn1c(=O)c2[nH]c(CCS)nc2n(C)c1=O |  | > 100 |  | > 100 |  | > 100 |  | > 100 |  | > 100 |  | > 100 |  | > 100 | > 100 | 
9 | CCN(CC)CCOc1ccccc1-n1c(C)ccc1-c1ccccc1 | 10.5 | 24.4 | 12 | 25.8 | 17.3 | 32.3 | 18.2 | 38 | 16.3 | 34.2 | 15.7 | 30.1 |  |  | 20.1 | 5.31
10 | COc1ccc(-c2cncn2-c2ccc(-c3nc4cc(OC)c(OC)c(OC)c4s3)cc2)cc1N | 1.99 | 7.57 | 3.78 | > 100 | 6.38 | > 100 | 4.69 | > 100 | 4.44 | > 100 | > 100 | > 100 | 6.7 | > 100 | > 100 | 5.98
11 | Cc1cc(O)cc(-c2nn(C)cc2-c2cc(N3CCOCC3)nc(-c3cccnc3)n2)c1 | 3.44 | 43.3 | 3.06 | > 100 | 3.97 | > 100 | 3.28 | > 100 | 3.28 | 14.6 | 12.2 | > 100 | 4.83 | 20.5 | 6.51 | 1.7
12 | COc1ccc(C#CC2=C(Br)C(=O)OC2)cc1 | 16.9 | > 50 | 1.4 | 35.7 | 5.44 | 11.4 | 10 | > 50 | 10.5 | 29.1 | 14.7 | 28.8 | 13.3 | 34.6 | 17.4 | 7.06
13 | O=CCC(O)C(O)C(O)CO (stereo not given) | > 100 | > 100 | > 100 | > 100 | > 100 | > 100 | > 100 | > 100 | > 100 | > 100 | > 100 | > 100 | > 100 | > 100 |  | 
14 | CSc1ccc(NC(=O)CCl)cc1 |  | 9.79 |  | > 10 |  | > 10 |  | > 10 |  | 5.1 |  | > 10 |  | > 10 | > 10 | 
15 | COc1ncc(-c2ccc3ncnc(Nc4cccc(Cl)c4)c3c2)cc1NS(C)(=O)=O | 0.354 | 8.96 | 2.33 | 10.9 | 0.756 | 21.1 | 1.87 | > 100 | 1.71 | 10.8 | 0.273 | 6.51 | 4.83 | 24.2 | 4.79 | 1.42
16 | COc1ccc(OC)c(-c2nc3sc(C)cn3c2/C=C2\C(=O)N(C)c3ccccc32)c1 | 21.1 | 59.7 | 18.6 | 37.1 | 29.2 | 81.8 | 18.7 | 44.2 | 19.6 | 46.7 | 44.9 | > 100 | 29.8 | > 100 |  | 
17 | CC(=O)OCCC/C(=C/c1cc2ccccc2c2ccccc12)[N+](=O)[O-] | 1.09 | 2.3 | 1.48 | 2.8 | 1.26 | 2.51 | 1.71 | 3.14 | 0.977 | 2.32 | 1.68 | 3.11 | 2.04 | 5.63 | 2.91 | 1.4
18 | O=C(/C=C/c1cc(O)ccc1O)c1ccc(Cl)cc1 | 96.7 | > 100 | 16.7 | 41.6 |  |  | 32.5 | > 100 | 35.3 | > 100 | 17.4 | 38.7 | 22.3 | 66.8 | > 100 | > 100

Row | Structure (SMILES) | GI50 [1] [µM] | TGI [1] [µM] | GI50 [2] [µM] | TGI [2] [µM] | GI50 [3] [µM] | TGI [3] [µM] | GI50 [4] [µM] | TGI [4] [µM] | GI50 [5] [µM] | TGI [5] [µM] | GI50 [6] [µM] | TGI [6] [µM] | GI50 [7] [µM] | TGI [7] [µM] | TGI [8] [µM] | GI50 [8] [µM]
19 | C=CC(=O)N1CCC(CNc2ncnc(N)c2-c2ccc(Oc3ccccc3)cc2)CC1 | 8.63 | 49.2 | 30.1 | > 100 | 32.9 | > 100 | 34.8 | > 100 | 29 | > 100 | 46.7 | > 100 | 19.5 | 85.1 | 85.2 | 22.4
20 | CCOC(=O)CC1C(CNC(=O)NC)OC(n2cnc3c(NC(=O)Nc4ccccc4)ncnc32)C1O[Si](C)(C)C(C)(C)C (stereo not given) | 12.1 | 29.5 | 3.2 | 16.1 | 4.97 | 19.4 | 5.53 | 25 | 5.73 | > 100 | 31.1 | > 100 | > 100 | > 100 | 4.63 | 2.01
21 | C#CCn1c2c(c3ccccc3c1=O)C(=O)c1ccccc1-2 |  | 13.9 |  | > 100 |  | 44.4 |  |  |  | 94.3 |  | > 100 |  | 79.3 |  | 
22 | CCN1C(=O)N[C@H]2[C@@H]3NC(=O)c4ccc(Cl)n4[C@@H]3C[C@]21O | 3.19 | 24.1 | 0.397 | 8.32 | 0.615 | 19.3 | 0.395 | 16.6 | 1 | 4.93 |  |  | 0.543 | 5.7 | 2.69 | 0.333
23 | COc1ccc2c(ccc3oc([N+](=O)[O-])cc32)c1 | 0.224 | 0.763 | 0.0487 | 0.92 | 0.191 | 1.14 | 0.181 | 0.85 | 0.302 | 1.9 | 0.364 | 4.74 | 0.193 | 0.629 | 0.223 | 0.0702
24 | COc1ccccc1N1CCN(CC(O)Cn2c(=O)c3c(OC)nc(C)cc3c(=O)n2-c2ccccc2)CC1 (stereo not given) | > 100 | > 100 | 67.3 | > 100 | > 100 | > 100 | > 100 | > 100 | 25.8 | > 100 | > 100 | > 100 | > 100 | > 100 |  | 
25 | Clc1ccc2c(NCCNc3nc(N4CCCCC4)nc4ccccc34)ccnc2c1 | 1.39 | 2.79 | 0.441 | 1.63 | 3.24 | 12.9 |  |  | 1.71 | 3.23 | 2.68 | 10.1 | 1.92 | 4.05 | 3.72 | 1.81
26 | COc1cc(-c2cn(-c3ccc(F)cc3)c(=O)[nH]2)cc(OC)c1OC | > 100 | > 100 | > 100 | > 100 | > 100 | > 100 | > 100 | > 100 | > 100 | > 100 | > 100 | > 100 | > 100 | > 100 | > 100 | > 100
27 | COc1ccc(/C=N/C2=NNC(C)(c3ccccc3O)N2C(Cc2c[nH]c3ccccc23)C(=O)O)cc1 (stereo not given) | 1.62 | 11.2 | 2.52 | 10.2 | 4.13 | 17.8 | 2.55 | 8.51 | 2.12 | 7.35 | 3.06 | 19 | 2.16 | 10.3 | 6.26 | 1.27
28 | COc1ccc2c3c1OC1C4(CCC5C(C2)N(CC2CC2)CCC351)OCCO4 (stereo not given) |  | > 100 |  | > 100 |  | > 100 |  | > 100 |  | > 100 |  | > 100 |  | > 100 | > 100 | 
29 | CN1CCN(c2ccc(NC(=O)c3cncnc3Nc3ccc4c(ccn4Cc4cccc(F)c4)c3)cc2)CC1 | 3.8 | 7.83 | 1 | 3.55 | 3.82 | 7.87 | 1.35 | 4.99 | 5.41 | 10.5 | 3.42 | 7.32 | 4.86 | 11.6 | 3.77 | 0.707
30 | NC1=CC(=O)C(=O)c2ccccc21 | 11.5 | 35.6 | 12.7 | 28 | 17.9 | 45.4 | 33.8 | > 100 | 12.7 | 33.4 | 18.9 | 41.1 | 18.8 | 42.1 | 71.5 | 24.3
31 | Cc1ccc(Nn2c(SCC(=O)Nc3nc(-c4ccccc4)cs3)nc(C)c2C)cc1 | 2.89 | > 100 | 2.82 | 26.5 | 9.75 | 64.6 | 3.88 | 16.5 | 1.06 | 5.89 | 17.2 | > 100 |  |  |  | 
32 | CCN(CC)CCC(CNc1c(C)cnc2cc(Cl)ccc12)c1ccc(Cl)c(Cl)c1 (stereo not given) | 2.59 | 13.9 | 1.36 | 8.86 | 9.2 | 22 | 2.63 | 10.7 | 1.67 | 3.75 | 4.62 | 18.9 | 13.5 | 30.8 | 11.4 | 2.86
33 | Nc1n[nH]c2cc(F)c([C@@H]3Nc4c(F)cc5[nH]ncc5c4[C@H]4C5CCC(C5)[C@@H]34)cc12 (stereo not given in full) | 0.209 | 10.8 | 0.118 | 1.56 | 0.157 | 7.97 | 0.117 | 3.57 | 0.0971 | 3.82 | 0.175 | 8.52 | 0.141 | 1.41 |  | 
34 | O=C1c2ccccc2-c2c1c1ccc3ccccc3c1n2-c1ccccc1 | 44.7 | > 100 |  |  | 39 | > 100 | 31.7 | > 100 | 22.9 | 67.4 | 29.2 | > 100 | 27.9 | 75.2 | 52.1 | 18.9
35 | CCSc1nnc(-c2ccc3ccccc3c2O)n1-c1ccccc1 |  |  |  |  | > 100 | > 100 | 3.25 | > 100 |  |  |  |  |  |  | > 100 | > 100
36 | Cc1nc2sc(C(=O)Nc3cccc(Cl)c3C)c(N)c2cc1C(O)c1ccccc1 (stereo not given) | 0.0985 | 12.6 | 0.0404 | 10.9 | 0.0454 | 8.5 | 0.0347 | 0.486 | 0.0333 | 5.08 | 0.14 | 46.5 | 1.19 | 22.8 |  | 

Source: PubChem BioAssay (NCI)
